The target of experiment [1] is T1, Serine/threonine-protein kinase TAO3 (Homo sapiens) (UniProt Q9H2K8).
T1 sequence (whole entry): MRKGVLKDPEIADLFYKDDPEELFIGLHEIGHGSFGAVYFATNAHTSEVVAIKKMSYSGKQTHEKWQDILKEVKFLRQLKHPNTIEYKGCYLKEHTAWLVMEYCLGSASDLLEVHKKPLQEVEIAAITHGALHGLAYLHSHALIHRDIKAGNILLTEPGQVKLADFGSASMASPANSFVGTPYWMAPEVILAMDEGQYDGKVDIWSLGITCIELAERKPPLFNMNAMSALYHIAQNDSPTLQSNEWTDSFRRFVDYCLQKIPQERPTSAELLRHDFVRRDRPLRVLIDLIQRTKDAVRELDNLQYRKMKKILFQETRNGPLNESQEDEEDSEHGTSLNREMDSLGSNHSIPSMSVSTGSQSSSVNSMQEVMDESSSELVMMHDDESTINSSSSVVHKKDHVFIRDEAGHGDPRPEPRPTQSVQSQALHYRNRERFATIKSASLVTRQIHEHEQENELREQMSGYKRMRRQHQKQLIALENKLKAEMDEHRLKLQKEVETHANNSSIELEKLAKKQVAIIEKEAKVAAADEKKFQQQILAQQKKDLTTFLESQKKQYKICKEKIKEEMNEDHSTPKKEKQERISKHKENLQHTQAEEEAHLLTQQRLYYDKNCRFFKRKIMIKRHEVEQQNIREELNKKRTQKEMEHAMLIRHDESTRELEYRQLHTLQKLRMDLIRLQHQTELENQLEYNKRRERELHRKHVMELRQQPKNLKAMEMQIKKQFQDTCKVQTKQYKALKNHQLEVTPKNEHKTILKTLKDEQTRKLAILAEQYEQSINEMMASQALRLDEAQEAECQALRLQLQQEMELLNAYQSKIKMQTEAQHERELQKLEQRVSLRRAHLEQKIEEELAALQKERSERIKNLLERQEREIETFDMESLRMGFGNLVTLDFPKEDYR
Description: TAO3(h) Eurofins kinase panel. Particulars: Compound concentration 1.0 uM.

Experiment [2] deals with Cyclin-dependent kinase-like 1 (Homo sapiens) (UniProt Q00532). Put plainly: CDKL1(h) Eurofins kinase panel. Particulars: Compound concentration 1.0 uM.
Chain of Cyclin-dependent kinase-like 1 (Homo sapiens) (Q00532 whole entry, the tested form may be a part): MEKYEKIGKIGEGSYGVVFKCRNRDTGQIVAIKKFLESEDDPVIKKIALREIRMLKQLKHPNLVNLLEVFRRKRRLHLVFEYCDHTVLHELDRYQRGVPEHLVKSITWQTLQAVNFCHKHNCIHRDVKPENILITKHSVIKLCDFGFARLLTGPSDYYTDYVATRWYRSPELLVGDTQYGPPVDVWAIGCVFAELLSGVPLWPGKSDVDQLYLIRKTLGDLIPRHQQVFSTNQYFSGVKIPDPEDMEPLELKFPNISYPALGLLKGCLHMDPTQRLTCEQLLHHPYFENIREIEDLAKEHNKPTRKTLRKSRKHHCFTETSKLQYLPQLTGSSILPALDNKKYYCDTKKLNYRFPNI
For experiment [3], the target named is Phosphatidylinositol 4-phosphate 3-kinase C2 domain-containing subunit alpha (Homo sapiens) (UniProt O00443). Put plainly: PI3KC2a(h) Eurofins kinase panel. Particulars: Compound concentration 1.0 uM.
Experiment [4] deals with CDK7/Cyclin H/MNAT1 (Homo sapiens) (UniProt P51946+P50613+P51948). Description: CDK7/cyclinH/MAT1(h) Eurofins kinase panel. In kind it is protein-complex assay. Particulars: Compound concentration 1.0 uM.
The target in experiment [5] is 5'-AMP-activated protein kinase catalytic subunit alpha-1 (Homo sapiens, UniProt Q13131).
Chain of 5'-AMP-activated protein kinase catalytic subunit alpha-1 (Q13131 whole entry): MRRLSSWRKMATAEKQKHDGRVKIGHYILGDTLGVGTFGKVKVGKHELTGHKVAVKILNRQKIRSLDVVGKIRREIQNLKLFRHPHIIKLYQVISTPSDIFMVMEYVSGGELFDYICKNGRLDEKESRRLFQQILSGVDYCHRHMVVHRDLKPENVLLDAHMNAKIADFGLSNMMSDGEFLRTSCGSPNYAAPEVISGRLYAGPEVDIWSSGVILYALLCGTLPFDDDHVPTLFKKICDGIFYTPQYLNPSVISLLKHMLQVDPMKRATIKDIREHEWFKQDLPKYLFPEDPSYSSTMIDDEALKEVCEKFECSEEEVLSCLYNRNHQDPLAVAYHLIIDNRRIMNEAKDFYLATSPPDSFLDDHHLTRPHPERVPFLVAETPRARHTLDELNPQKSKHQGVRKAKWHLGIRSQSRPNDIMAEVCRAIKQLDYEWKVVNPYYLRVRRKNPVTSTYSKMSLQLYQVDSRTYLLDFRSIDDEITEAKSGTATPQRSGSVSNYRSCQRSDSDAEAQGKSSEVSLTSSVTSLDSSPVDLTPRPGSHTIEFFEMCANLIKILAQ
The target in experiment [6] is G protein-coupled receptor kinase 6 (Homo sapiens) (UniProt P43250). Put plainly: GRK6(h) Eurofins kinase panel. Particulars: Compound concentration 1.0 uM.
Experiment [7] has as its target Epithelial discoidin domain-containing receptor 1 (Homo sapiens) (UniProt Q08345). Description: DDR1(h) Eurofins kinase panel. Particulars: Compound concentration 1.0 uM.
In experiment [8] the target is T2, Protein kinase C epsilon type (Homo sapiens) (UniProt Q02156).
T2 sequence (whole entry): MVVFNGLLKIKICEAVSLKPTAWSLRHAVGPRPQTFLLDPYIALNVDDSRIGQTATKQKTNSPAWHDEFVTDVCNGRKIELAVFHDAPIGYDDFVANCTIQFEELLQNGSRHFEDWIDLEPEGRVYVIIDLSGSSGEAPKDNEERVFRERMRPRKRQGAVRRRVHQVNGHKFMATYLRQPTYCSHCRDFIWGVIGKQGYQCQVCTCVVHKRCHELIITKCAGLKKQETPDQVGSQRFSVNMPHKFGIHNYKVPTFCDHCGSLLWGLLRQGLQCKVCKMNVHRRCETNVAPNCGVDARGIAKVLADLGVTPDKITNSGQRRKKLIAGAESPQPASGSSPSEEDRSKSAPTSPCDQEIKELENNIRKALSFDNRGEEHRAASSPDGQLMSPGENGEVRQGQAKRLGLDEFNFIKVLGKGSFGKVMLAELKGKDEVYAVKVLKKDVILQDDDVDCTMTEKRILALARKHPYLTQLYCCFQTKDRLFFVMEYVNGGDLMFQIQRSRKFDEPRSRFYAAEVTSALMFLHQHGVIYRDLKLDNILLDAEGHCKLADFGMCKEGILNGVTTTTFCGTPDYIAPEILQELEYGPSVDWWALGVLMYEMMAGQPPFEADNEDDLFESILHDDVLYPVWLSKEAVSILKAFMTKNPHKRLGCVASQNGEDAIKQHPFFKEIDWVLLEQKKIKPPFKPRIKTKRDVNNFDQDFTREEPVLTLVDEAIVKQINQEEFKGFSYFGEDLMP
Put plainly: PKCepsilon (h) Eurofins kinase panel. Particulars: Compound concentration 1.0 uM.

In experiment [9] the target is Tyrosine-protein kinase JAK2 (Homo sapiens) (UniProt O60674). Description: JAK2(h) Eurofins kinase panel. Particulars: Compound concentration 1.0 uM.
Experiment [10] addresses Protein kinase C theta type (Homo sapiens) (UniProt Q04759). Description: PKCtheta (h) Eurofins kinase panel. Particulars: Compound concentration 1.0 uM.
The target in experiment [11] is T3, NUAK family SNF1-like kinase 1 (Homo sapiens) (UniProt O60285).
T3 sequence (whole entry): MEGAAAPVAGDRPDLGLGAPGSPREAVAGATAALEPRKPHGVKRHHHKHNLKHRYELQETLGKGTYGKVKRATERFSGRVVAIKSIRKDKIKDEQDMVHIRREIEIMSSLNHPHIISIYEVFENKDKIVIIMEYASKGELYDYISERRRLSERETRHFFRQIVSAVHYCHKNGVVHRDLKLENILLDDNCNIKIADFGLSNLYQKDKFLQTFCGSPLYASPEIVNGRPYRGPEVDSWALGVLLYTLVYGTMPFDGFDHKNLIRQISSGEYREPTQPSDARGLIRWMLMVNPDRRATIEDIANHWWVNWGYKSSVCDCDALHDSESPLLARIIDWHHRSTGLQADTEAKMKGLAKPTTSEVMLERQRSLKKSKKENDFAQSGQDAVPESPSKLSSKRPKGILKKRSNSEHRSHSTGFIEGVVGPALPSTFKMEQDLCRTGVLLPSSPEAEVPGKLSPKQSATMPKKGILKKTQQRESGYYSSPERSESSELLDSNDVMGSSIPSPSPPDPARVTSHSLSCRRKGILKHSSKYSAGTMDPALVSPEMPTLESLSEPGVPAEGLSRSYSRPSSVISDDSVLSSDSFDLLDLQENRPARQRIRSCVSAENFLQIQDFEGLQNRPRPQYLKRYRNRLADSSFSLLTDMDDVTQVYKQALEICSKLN
Put plainly: ARK5(h) Eurofins kinase panel. Particulars: Compound concentration 1.0 uM.

For experiment [12], the target named is Serine/threonine-protein kinase PLK1 (Homo sapiens) (UniProt P53350). Description: Plk1(h) Eurofins kinase panel. Particulars: Compound concentration 1.0 uM.
Chain of Serine/threonine-protein kinase PLK1 (Homo sapiens) (P53350 whole entry): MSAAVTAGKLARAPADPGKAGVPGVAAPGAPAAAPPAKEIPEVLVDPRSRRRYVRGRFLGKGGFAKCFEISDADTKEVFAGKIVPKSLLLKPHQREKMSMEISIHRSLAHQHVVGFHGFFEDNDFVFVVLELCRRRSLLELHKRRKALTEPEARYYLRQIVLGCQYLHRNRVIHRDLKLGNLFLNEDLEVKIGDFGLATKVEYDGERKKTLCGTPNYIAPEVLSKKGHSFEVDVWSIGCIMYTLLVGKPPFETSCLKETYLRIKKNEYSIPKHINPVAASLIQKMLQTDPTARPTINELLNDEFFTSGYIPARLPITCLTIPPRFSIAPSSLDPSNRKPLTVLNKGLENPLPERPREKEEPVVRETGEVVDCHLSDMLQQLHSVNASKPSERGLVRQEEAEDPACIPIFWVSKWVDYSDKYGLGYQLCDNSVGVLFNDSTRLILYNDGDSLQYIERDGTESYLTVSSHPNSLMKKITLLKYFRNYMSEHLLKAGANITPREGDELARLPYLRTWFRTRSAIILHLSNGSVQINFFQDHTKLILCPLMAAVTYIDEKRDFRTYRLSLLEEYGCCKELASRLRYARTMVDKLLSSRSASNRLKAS
Experiment [13] addresses Serine/threonine-protein kinase 24 (Homo sapiens, UniProt Q9Y6E0). Particulars: Compound concentration 1.0 uM.
In experiment [14] the target is Serine/threonine-protein kinase PAK 5 (Homo sapiens) (UniProt Q9P286). Put plainly: PAK5(h) Eurofins kinase panel. Particulars: Compound concentration 1.0 uM.
Chain of Serine/threonine-protein kinase PAK 5 (Homo sapiens) (Q9P286 whole entry, looked up): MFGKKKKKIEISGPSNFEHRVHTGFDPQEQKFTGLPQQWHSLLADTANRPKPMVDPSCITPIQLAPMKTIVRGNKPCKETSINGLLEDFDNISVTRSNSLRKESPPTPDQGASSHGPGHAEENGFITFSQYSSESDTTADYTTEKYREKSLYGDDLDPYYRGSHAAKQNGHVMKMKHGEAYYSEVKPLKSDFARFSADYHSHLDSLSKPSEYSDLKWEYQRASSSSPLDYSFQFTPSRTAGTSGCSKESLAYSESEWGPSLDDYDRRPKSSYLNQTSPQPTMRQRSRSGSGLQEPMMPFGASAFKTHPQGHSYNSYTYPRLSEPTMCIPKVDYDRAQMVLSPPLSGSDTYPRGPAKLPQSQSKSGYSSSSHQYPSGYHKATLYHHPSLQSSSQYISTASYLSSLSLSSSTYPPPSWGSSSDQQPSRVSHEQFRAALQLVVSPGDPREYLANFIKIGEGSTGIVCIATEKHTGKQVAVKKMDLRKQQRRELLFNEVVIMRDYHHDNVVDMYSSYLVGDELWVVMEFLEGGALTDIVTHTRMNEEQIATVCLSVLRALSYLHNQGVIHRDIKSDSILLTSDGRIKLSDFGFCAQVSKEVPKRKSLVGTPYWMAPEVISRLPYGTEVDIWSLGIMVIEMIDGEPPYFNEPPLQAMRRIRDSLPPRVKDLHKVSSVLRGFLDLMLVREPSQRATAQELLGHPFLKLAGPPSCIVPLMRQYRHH
For experiment [15], the target named is Mitogen-activated protein kinase 10 (Homo sapiens) (UniProt P53779). Put plainly: JNK3(h) Eurofins kinase panel. Particulars: Compound concentration 1.0 uM.
Chain of Mitogen-activated protein kinase 10 (Homo sapiens) (P53779 whole entry): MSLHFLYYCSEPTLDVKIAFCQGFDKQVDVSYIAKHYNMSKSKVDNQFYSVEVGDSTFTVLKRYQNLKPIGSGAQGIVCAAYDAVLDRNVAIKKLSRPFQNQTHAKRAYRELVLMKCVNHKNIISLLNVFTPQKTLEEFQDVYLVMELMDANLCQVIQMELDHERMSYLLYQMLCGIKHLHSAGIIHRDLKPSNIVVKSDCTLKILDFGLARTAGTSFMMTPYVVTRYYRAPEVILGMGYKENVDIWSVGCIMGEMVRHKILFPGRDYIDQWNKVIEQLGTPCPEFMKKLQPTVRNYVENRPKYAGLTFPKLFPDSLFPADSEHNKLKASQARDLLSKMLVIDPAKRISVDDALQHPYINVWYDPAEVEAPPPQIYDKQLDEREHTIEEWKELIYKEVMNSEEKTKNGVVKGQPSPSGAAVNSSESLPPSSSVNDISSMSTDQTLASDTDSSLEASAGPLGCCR

What is called IC50 is the midpoint of a concentration-inhibition curve. Low values mean greater potency in that assay, high ones weaker potency in that assay.

Chain of Epithelial discoidin domain-containing receptor 1 (Homo sapiens) (Q08345 whole entry, the tested form may be a part): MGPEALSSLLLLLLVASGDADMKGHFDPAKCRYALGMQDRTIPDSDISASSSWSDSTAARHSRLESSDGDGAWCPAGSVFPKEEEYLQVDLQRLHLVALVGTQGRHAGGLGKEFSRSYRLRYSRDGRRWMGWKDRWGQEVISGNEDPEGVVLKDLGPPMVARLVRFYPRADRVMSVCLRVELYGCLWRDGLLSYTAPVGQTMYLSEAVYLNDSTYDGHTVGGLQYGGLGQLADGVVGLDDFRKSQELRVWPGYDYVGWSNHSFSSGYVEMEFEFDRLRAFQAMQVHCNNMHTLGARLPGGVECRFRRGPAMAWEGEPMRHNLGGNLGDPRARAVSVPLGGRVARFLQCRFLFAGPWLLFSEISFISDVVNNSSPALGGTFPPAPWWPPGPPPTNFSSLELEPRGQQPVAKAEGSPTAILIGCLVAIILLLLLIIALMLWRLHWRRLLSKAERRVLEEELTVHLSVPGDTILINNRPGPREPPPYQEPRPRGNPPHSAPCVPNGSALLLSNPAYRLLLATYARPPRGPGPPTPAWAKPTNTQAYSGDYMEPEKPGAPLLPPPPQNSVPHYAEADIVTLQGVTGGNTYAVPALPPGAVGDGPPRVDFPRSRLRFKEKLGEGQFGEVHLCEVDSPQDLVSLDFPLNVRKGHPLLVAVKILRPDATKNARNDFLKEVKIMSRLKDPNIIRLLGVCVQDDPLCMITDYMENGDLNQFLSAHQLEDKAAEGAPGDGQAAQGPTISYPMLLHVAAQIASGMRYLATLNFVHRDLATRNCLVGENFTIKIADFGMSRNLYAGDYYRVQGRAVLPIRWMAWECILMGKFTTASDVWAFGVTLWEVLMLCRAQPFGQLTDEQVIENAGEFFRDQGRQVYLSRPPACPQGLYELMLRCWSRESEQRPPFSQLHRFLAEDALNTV
Chain of Protein kinase C theta type (Homo sapiens) (Q04759 whole entry, looked up): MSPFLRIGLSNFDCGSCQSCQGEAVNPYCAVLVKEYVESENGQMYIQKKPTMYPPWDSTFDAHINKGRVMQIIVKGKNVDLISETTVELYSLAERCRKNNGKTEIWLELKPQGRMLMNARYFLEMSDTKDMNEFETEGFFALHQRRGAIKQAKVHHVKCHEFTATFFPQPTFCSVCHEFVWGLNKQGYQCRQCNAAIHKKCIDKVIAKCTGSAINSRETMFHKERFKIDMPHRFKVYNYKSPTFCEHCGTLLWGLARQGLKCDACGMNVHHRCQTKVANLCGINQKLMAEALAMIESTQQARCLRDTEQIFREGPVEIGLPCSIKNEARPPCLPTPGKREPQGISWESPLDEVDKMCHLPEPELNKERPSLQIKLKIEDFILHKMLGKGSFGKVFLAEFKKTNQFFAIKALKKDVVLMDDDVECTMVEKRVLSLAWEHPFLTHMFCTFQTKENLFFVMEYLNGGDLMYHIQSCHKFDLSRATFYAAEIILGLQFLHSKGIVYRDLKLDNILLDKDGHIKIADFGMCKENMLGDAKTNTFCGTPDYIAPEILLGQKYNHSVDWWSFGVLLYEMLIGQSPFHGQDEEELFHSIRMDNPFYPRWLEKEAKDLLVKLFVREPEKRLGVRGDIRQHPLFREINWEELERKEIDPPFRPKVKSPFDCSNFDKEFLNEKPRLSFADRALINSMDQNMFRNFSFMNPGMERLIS
Chain of Serine/threonine-protein kinase 24 (Q9Y6E0 whole entry, looked up): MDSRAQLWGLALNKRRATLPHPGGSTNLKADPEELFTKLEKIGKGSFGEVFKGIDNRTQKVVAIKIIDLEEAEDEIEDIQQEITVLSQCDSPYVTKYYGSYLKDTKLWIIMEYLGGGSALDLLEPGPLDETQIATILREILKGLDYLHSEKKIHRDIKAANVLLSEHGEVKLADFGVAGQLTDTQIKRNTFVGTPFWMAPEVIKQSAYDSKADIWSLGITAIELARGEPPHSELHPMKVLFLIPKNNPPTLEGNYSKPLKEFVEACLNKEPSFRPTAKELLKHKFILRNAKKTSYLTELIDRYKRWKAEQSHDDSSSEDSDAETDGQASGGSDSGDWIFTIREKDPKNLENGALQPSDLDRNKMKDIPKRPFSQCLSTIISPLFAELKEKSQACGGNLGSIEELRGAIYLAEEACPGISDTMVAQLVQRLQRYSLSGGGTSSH

Regarding `CCc1ccccc1C(=O)Nc1n[nH]c2c(C)c(F)c(C3C(C#N)=C(C)N(C)C(C)=C3C#N)cc12` [BAY-3827], the % residual kinase activity in experiment [1] is 102%; in experiment [2], 95%; in [3], 103%; in [4] it was 66%; in experiment [6], 96%; in experiment [7], 32%. The % residual kinase activity in experiment [8] is 62%; in experiment [9] it was 88%; in [10] it was 33%; in experiment [11], 21%; in experiment [12], 102%; in [13] it was 17%. The % residual kinase activity in [14] was 86%; in experiment [15], 72%. Also, the IC50 in experiment [5] came to 0.01 µM.

Values taken from ChEMBL document CHEMBL4507319 (2021).
